Test results published in US6737383B1, “Herbicidal oxadiazolidines” (priority 1999, dated 2004).

Experiments:
giant foxtail = assay: Test B pre/postemergence giant foxtail; type: in vivo, Setaria faberii
Procedure, shortened: (§1)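 Herbicidal effect was estimated by eye on a ten-point control scale after plants spent twelve to sixteen days in a greenhouse following soil or foliar treatment. Foliar sprays targeted plants at one to four leaves; all doses were formulated in a non-phytotoxic solvent with surfactant.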

duck salad = assay: Test B flood test duck salad; type: in vivo, Heteranthera limosa
Procedure, shortened: (§2)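 Each value is a visual injury score relative to controls, with 10 meaning complete control and 0 no effect. Evaluation took place twelve to sixteen days after the 2-leaf-stage plants were treated and kept in the greenhouse.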

velvetleaf = assay: Test B pre/postemergence velvetleaf; type: in vivo, Abutilon theophrasti
Procedure, shortened: as §1

morningglory = assay: Test B pre/postemergence morningglory; type: in vivo, Ipomoea hederacea
Procedure, shortened: as §1

crabgrass = assay: Test B pre/postemergence crabgrass; type: in vivo, Digitaria sanguinalis
Procedure, shortened: as §1

wild oat = assay: Test B pre/postemergence wild oat; type: in vivo, Avena fatua
Procedure, shortened: as §1

sugar beet = assay: Test B pre/postemergence sugar beet; type: in vivo, Beta vulgaris
Procedure, shortened: as §1

corn = assay: Test B pre/postemergence corn; type: in vivo, Zea mays
Procedure, shortened: as §1

wheat = assay: Test B pre/postemergence wheat; type: in vivo, Triticum aestivum
Procedure, shortened: as §1

soybean = assay: Test B pre/postemergence soybean; type: in vivo, Glycine max
Procedure, shortened: as §1

rape = assay: Test B pre/postemergence rape; type: in vivo, Brassica napus
Procedure, shortened: as §1

smallflower flatsedge = assay: Test B flood test smallflower flatsedge; type: in vivo, Cyperus difformis
Procedure, shortened: as §2

cocklebur = assay: Test B pre/postemergence cocklebur; type: in vivo, Xanthium strumarium
Procedure, shortened: as §1

pigweed = assay: Test B pre/postemergence pigweed; type: in vivo, Amaranthus retroflexus
Procedure, shortened: as §1

rice = assay: Test B flood test rice; type: in vivo, Oryza sativa
Procedure, shortened: as §2

purple nutsedge = assay: Test B pre/postemergence purple nutsedge; type: in vivo, Cyperus rotundus
Procedure, shortened: as §1

[1] = Postemergence, Rate 62 g/ha, scale 0 to 10, 0 is no effect, 10 is complete control
[2] = Postemergence, Rate 125 g/ha, scale of 0 to 10 where 0 is no effect and 10 is complete control
[3] = Postemergence, Rate 250 g/ha, scale of 0 to 10, 0 is no effect, 10 is complete control
[4] = Preemergence, Rate 62 g/ha, scale of 0 to 10 where 0 is no effect and 10 is complete control
[5] = Preemergence, Rate 250 g/ha, scale 0 to 10 (0 no effect, 10 complete control)
[6] = Preemergence, Rate 500 g/ha, scale of 0 to 10 where 0 is no effect and 10 is complete control
[7] = Rate 500 g/ha, Postemergence, scale 0 to 10, 0 is no effect, 10 is complete control
[8] = Rate 62 g/ha, flood test species, Pre-emergence, visual evaluation after twelve to sixteen days
[9] = Rate 125 g/ha, under heading Pre-emergence, flood test species, visual evaluation after twelve to sixteen days
[10] = Rate 250 g/ha, Pre-emergence (flood test species), scale 0 to 10, 0 is no effect, 10 is complete control
[11] = Rate 500 g/ha, Pre-emergence section of Table B, 0 to 10 scale (0 no effect, 10 complete control)
[12] = Preemergence, Rate 125 g/ha, scale of 0 to 10 where 0 is no effect and 10 is complete control

C=C(Cn1c(=O)on(C(=O)N(c2ccccc2)C(C)C)c1=O)C(C)C [Compound 649]
Plant response rating, Giant foxtail (giant foxtail; [1]): 0 | Giant foxtail plant response rating (giant foxtail; [2]): 2 | Giant foxtail plant response rating (giant foxtail; [3]): 2 | Giant foxtail plant response rating (giant foxtail; [4]): 0 | Plant response rating, Giant foxtail (giant foxtail; [5]): 9 | Plant response rating, Giant foxtail (giant foxtail; [6]): 9 | Giant foxtail plant response rating (giant foxtail; [7]): 7 | Plant response rating, Ducksalad (0 to 10 scale, 0 is no effect, 10 is complete control) (duck salad; [8]): 0 | Ducksalad plant response rating (0 to 10 scale, 0 is no effect, 10 is complete control) (duck salad; [9]): 0 | Ducksalad plant response rating (duck salad; [10]): 0 | Ducksalad plant response rating (duck salad; [11]): 0 | Plant response rating, Velvetleaf (velvetleaf; [1]): 0 | Velvetleaf plant response rating (velvetleaf; [2]): 0 | Velvetleaf plant response rating (velvetleaf; [4]): 0 | Velvetleaf plant response rating (velvetleaf; [12]): 0 | Plant response rating, Velvetleaf (velvetleaf; [5]): 0 | Plant response rating, Velvetleaf (velvetleaf; [6]): 0 | Velvetleaf plant response rating (velvetleaf; [7]): 0 | Plant response rating, Morningglory (morningglory; [1]): 4 | Morningglory plant response rating (morningglory; [2]): 7 | Morningglory plant response rating (morningglory; [3]): 7 | Morningglory plant response rating (morningglory; [4]): 0 | Morningglory plant response rating (morningglory; [12]): 0 | Plant response rating, Morningglory (morningglory; [5]): 0 | Plant response rating, Morningglory (morningglory; [6]): 0 | Morningglory plant response rating (morningglory; [7]): 8 | Plant response rating, Crabgrass (crabgrass; [1]): 0 | Crabgrass plant response rating (crabgrass; [2]): 2 | Crabgrass plant response rating (crabgrass; [4]): 0 | Crabgrass plant response rating (crabgrass; [12]): 1 | Plant response rating, Crabgrass (crabgrass; [5]): 5 | Plant response rating, Crabgrass (crabgrass; [6]): 9 | Plant response rating, Wild oats (wild oat; [1]): 0 | Wild oats plant response rating (wild oat; [2]): 0 | Wild oats plant response rating (wild oat; [4]): 0 | Wild oats plant response rating (wild oat; [12]): 0 | Plant response rating, Wild oats (wild oat; [5]): 0 | Plant response rating, Wild oats (wild oat; [6]): 0 | Wild oats plant response rating (wild oat; [7]): 0 | Plant response rating, Sugarbeets (sugar beet; [1]): 0 | Sugarbeets plant response rating (sugar beet; [2]): 0 | Sugarbeets plant response rating (sugar beet; [12]): 0 | Plant response rating, Sugarbeets (sugar beet; [5]): 0 | Plant response rating, Sugarbeets (sugar beet; [6]): 0 | Sugarbeets plant response rating (sugar beet; [7]): 0 | Plant response rating, Corn (corn; [1]): 0 | Corn plant response rating (corn; [2]): 0 | Corn plant response rating (corn; [3]): 0 | Corn plant response rating (corn; [4]): 0 | Corn plant response rating (corn; [12]): 0 | Plant response rating, Corn (corn; [5]): 0 | Plant response rating, Corn (corn; [6]): 0 | Corn plant response rating (corn; [7]): 0 | Plant response rating, Wheat (wheat; [1]): 0 | Wheat plant response rating (wheat; [2]): 0 | Wheat plant response rating (wheat; [4]): 0 | Wheat plant response rating (wheat; [12]): 0 | Plant response rating, Wheat (wheat; [5]): 0 | Plant response rating, Wheat (wheat; [6]): 0 | Wheat plant response rating (wheat; [7]): 0 | Plant response rating, Soybean (soybean; [1]): 2 | Soybean plant response rating (soybean; [2]): 2 | Soybean plant response rating (soybean; [4]): 0 | Soybean plant response rating (soybean; [12]): 0 | Plant response rating, Soybean (soybean; [5]): 0 | Plant response rating, Soybean (soybean; [6]): 0 | Soybean plant response rating (soybean; [7]): 3 | Plant response rating, Rape (rape; [1]): 0 | Rape plant response rating (rape; [2]): 0 | Rape plant response rating (rape; [4]): 0 | Rape plant response rating (rape; [12]): 0 | Plant response rating, Rape (rape; [5]): 0 | Plant response rating, Rape (rape; [6]): 0 | Rape plant response rating (rape; [7]): 0 | Plant response rating, S. Flatsedge (0 to 10 scale, 0 is no effect, 10 is complete control) (smallflower flatsedge; [8]): 0 | S. Flatsedge plant response rating (0 to 10 scale, 0 is no effect, 10 is complete control) (smallflower flatsedge; [9]): 0 | S. Flatsedge plant response rating (smallflower flatsedge; [10]): 0 | S. Flatsedge plant response rating (smallflower flatsedge; [11]): 0 | Plant response rating, Cocklebur (cocklebur; [1]): 0 | Cocklebur plant response rating (cocklebur; [2]): 0 | Cocklebur plant response rating (cocklebur; [3]): 0 | Cocklebur plant response rating (cocklebur; [4]): 0 | Cocklebur plant response rating (cocklebur; [12]): 0 | Plant response rating, Cocklebur (cocklebur; [5]): 0 | Plant response rating, Cocklebur (cocklebur; [6]): 0 | Cocklebur plant response rating (cocklebur; [7]): 2 | Plant response rating, Redroot pigweed (pigweed; [1]): 0 | Redroot pigweed plant response rating (pigweed; [2]): 0 | Redroot pigweed plant response rating (pigweed; [4]): 0 | Redroot pigweed plant response rating (pigweed; [12]): 0 | Plant response rating, Redroot pigweed (pigweed; [5]): 0 | Plant response rating, Redroot pigweed (pigweed; [6]): 0 | Redroot pigweed plant response rating (pigweed; [7]): 0 | Plant response rating, Rice (0 to 10 scale, 0 is no effect, 10 is complete control) (rice; [8]): 0 | Rice plant response rating (0 to 10 scale, 0 is no effect, 10 is complete control) (rice; [9]): 0 | Rice plant response rating (rice; [10]): 0 | Rice plant response rating (rice; [11]): 0 | Plant response rating, Nutsedge (purple nutsedge; [1]): 0 | Nutsedge plant response rating (purple nutsedge; [2]): 0 | Nutsedge plant response rating (purple nutsedge; [4]): 0 | Nutsedge plant response rating (purple nutsedge; [12]): 0 | Plant response rating, Nutsedge (purple nutsedge; [5]): 0 | Plant response rating, Nutsedge (purple nutsedge; [6]): 0 | Nutsedge plant response rating (purple nutsedge; [7]): 0
